Converted amounts (≈) assume the structure as drawn. Read-outs that look alike come from different tables or passages of the source.
Tests used:
in vivo = conditions: female, albino, rabbit
[1] = In vitro TKI release from PLGA/PLA implants (Example 2); assay type: physicochemical; conditions: for period of in-vitro release from implants: implants in release medium, 37° C.
Method: TKI release from the implants was assessed in vitro. Implants were placed into vials containing release medium and shaken at 37° C. At the appropriate time points a sample was taken from the release medium for analysis and the medium totally replaced to maintain sink conditions. Drug in the sample was assayed by HPLC and the cumulative percent release of drug from the implant noted as a function of time. The in vitro release profiles of AGN 200954, AGN 202314, AGN 201635 and AGN 202564 are depicted in FIGS. 3 through 10, respectively.

[2] = Physicochemical properties of the TKIs (solubility, log P, log D, pKa; Tables 2, 11, 13); conditions: for logP: n-octanol/water, Table 2; for solubility: pH 7, aqueous buffer
Method: Tyrosine kinase inhibitors were incorporated into PLGA or PLA implants by extrusion. The TKIs were milled with the polymers at certain ratios then extruded into filaments. These filaments were subsequently cut into implants weighing approximately 1 mg. Several TKIs were formulated in the PLGA and PLA implants based on their potencies and physicochemical properties as shown in Table 2.
We developed a new (oil in water) process for making active agent microspheres (FIG. 23). This new process for making microspheres can be used with any small molecule which is slightly soluble in water and organic solvents and which is able to preferentially crystallize in organic solvents. Such small molecules include those which have a Log P greater than or equal to four. P, the partition coefficient, is defined as the ratio of the equilibrium concentration (Ci) of a dissolved substance in a two-phase system consisting of two largely immiscible solvents, for example the ratio of n-octanol (Co) to water (Cw).
Using our new process, each of the five different TKIs shown by FIG. 24 were separately incorporated into PLGA biodegradable microspheres. In FIG. 24 the five TKIs shown are identified as follows: first (uppermost) row: 206639 and 205558; second (middle) row: 206320 and 206316, and; bottom row: 206784. The properties of these five TKIs are set forth in Table 13, where “DSC” means differential scanning calorimetry and endotherms are noted in degrees Celsius (used to determine presence of TKI crystals).

[3] = Intravitreal pharmacokinetics of TKIs in fluid compositions after a single intravitreal injection; conditions: female, albino, rabbit, vitreous humor, other: intravitreal injection
[4] = In vitro release of AGN 201634 from PDLG/PDL implants in different media; assay type: physicochemical
Method: TKI release was examined for implants made from poly (D,L-lactide-co-glycolide) (PDLG) or poly (D,L-lactide) (PDL) in different media with or without addition of detergent at 37° C. in a shaking water bath.
TKI release was examined in various medium, including saline, phosphate buffer saline of pH 7.4, 50 mM bicarbonate buffer of pH 6.0±0.1 with 0.1% cetyltrimethylammonium bromide (CTAB), and 50 mM borate buffer of pH 8.5±0.1 with 0.5% sodium dodecyl sulfate (SDS) in a shaking water bath (Precision) at 37° C. Sample was incubated in 10 mL of medium, and was totally replaced with fresh medium at each sampling time. Drug concentration was determined by HPLC using a Waters 2690 Separation Module equipped with a Waters XTerra RP8 column (3.9×150 mm, 5 μm, equilibrated at ambient) and a Waters 996 photodiode array detector (set at 238 nm) using 0.1% acetic acid in acetonitrile/water (40/60 by volume) as the mobile phase under a flow rate of 1.2 mL/min. The column was equilibrated with mobile phase for at least 30 min before initiating any sample injection.
The DDS was incubated in a vial of either 40 or 20 mL, and 10 mL sample solution was replaced by same volume of fresh medium, respectively, at each sampling time. The release profiles in saline and PBS were obviously different. Less than 5% of TKI was released in saline during the first 70 days. In contrast, less than 5% of AGN 201634 was released at the first 3 weeks when DDS was incubated in PBS, the same as in saline, but more than 80% of AGN 201634 was released after 70 days. […] It seems that release medium plans an important role in the variation of release profile instead of incubation volume. Due to this slow and diverged release profile, the release profile of Formulation 2 was not performed since its formulation was based on the same polymer with a lower drug loading.
For F3, more than 50%, 45%, and 75% TKI was released at the first 3, 7, and 2 weeks, when DDS was incubated in a medium of pH 6.0 (with 0.1% CTAB), 7.4 (PBS) and 8.5 (with 0.5% SDS), respectively. […]

[5] = Stability of AGN 201634 standard solution in DI water/acetonitrile at 4° C.; assay type: physicochemical; conditions: DI water/acetonitrile (75%/25%) at 4° C.
Method: The stability of AGN 201634 standard solution in deionized water/acetonitrile (75%/25%) was examined at 4° C., and the results are summarized in the following table. The concentration of standard solution was from 0.0695 μg/mL to 8.693 μg/mL, and was analyzed on day 14, 21, and 35.
Stability of AGN 201634 standard solution of various concentrations in DI water/acetonitrile (75%/25%) at 4° C. (Table 9).

[6] = Stability of TKI in Formulations 3 and 4 in media of pH 6.0, 7.4 or 8.5; assay type: physicochemical
Method: To examine the stability of TKI in formulation, Formulations 3 and 4 were prepared to various concentration in a medium of pH 6.0, 7.4 or 8.5, respectively, and subjected to an incubation condition of either 7 days under ambient condition or 14 days at 4° C., and the results are summarized in the following table.

[7] = In vivo pharmacokinetics of AGN 202314 intravitreal PLGA implants; parameters: species or system rabbit
Method: Implants containing AGN 202314 were placed intravitreally or subconjunctivally in an eye. The implants released AGN 202314 in-vitro over a 14 day period (FIG. 3.). The intent of this study was to achieve an intravitreal in-vivo/in-vitro correlation with the intravitreal implants and assess the feasibility of periocular delivery.
Intravitreal Implants, PLGA (400 μg AGN 202314 dose, 1 mg total implant weight), were implanted by surgical incision into the mid vitreous of albino rabbits. At days 8, 15, 31 and 61 rabbits were sacrificed and the vitreous humor, lens, aqueous humor and plasma assayed for AGN 202314.

[8] = In vivo pharmacokinetics of AGN 202314 subconjunctival PLGA implants and PLA microspheres; conditions: rabbit; for concentration at 8 day: Day 8
Method: Subconjunctival implants, PLGA (1200 μg AGN 202314 dose; three implants) and PLA microspheres (300 μg AGN 202314) were implanted subconjunctivally. At days 8, 15, 31 and 61 rabbits were sacrificed and the vitreous humor, lens, aqueous humor and plasma assayed for AGN 202314.

[9] = Day 31, subconjunctival PLGA implants, 3 rods, total 1.2 mg AGN 202314
[10] = Day 61, subconjunctival PLGA implants, 3 rods, total 1.2 mg AGN 202314

O=C1Nc2ccccc2C1=CNc1ccc(N2CCOCC2)cc1 [AGN 199659, 3-[(4-Morpholin-4-yl-phenylamino)-methylene]-1,3-dihydro-indol-2-one]
Vd (in vivo): 0.000255 L | clearance (in vivo): 0.00387 mL/min | half-life (in vivo): 1.21 h

Nc1ccc2c(c1)C(=C1C(=O)Nc3ccc(Cl)cc31)OC2 [AGN 200954, 3-(6-Amino-3H-isobenzofuran-1-ylidene)-5-chloro-1,3-dihydro-indol-2-one]
period of in-vitro release from implants [1]: 180 days | logP [2]: 2.21 | solubility [2]: 0.3 µg/mL (≈ 1 µM) | clearance (in vivo): 0.00433 mL/min | Vd [3]: 0.000705 L | half-life [3]: 2.59 h

O=C(O)CC1O/C(=C2/C(=O)Nc3cc(F)ccc32)c2ccccc21 (centres unmarked) [AGN 201634]
duration of controlled release in vitro ([4]; medium of pH 6.0): more than 5 months | duration of controlled release in vitro ([4]; medium of pH 7.4): more than 5 months | duration of controlled release in vitro ([4]; medium of pH 8.5): more than 4 weeks | stability of solution [5]: more than 35 days | stability of DDS solution in various pH medium ([6]; 4° C.): > 14 days | stability of DDS solution in various pH medium ([6]; ambient condition): more than 7 days | logP [2]: 1.25 | solubility [2]: 88 µg/mL (≈ 271 µM)

CCN(CC)CCOc1ccc(NC=C2C(=O)Nc3cc(F)ccc32)cc1 [AGN 202314]
period of in-vitro delivery from formulations ([1]; 1 mg Purac PLA implants): four | period of drug release in vitro ([1]; AGN 202314 implant): two | period of in-vitro release from implants [1]: 14 days | plasma levels ([7]; all time points (days 8, 15, 31, 61), implants in rabbit eye): BLQ or extremely low | period of drug release in vivo ([7]; intravitreal PLGA implant, albino rabbit): two | Retina AGN 202314 concentration ([8]; Day 15, subconjunctival PLGA implants, 3 rods, total 1.2 mg AGN 202314): BLQ (BLQ: Retina and lens: <5 ng/g) | Lens AGN 202314 concentration [8, 9]: BLQ (BLQ: Retina and lens: <5 ng/g) | Retina AGN 202314 concentration [8, 9]: BLQ (BLQ: Retina and lens: <5 ng/g) | Lens AGN 202314 concentration [8, 10]: BLQ (BLQ: Retina and lens: <5 ng/g) | Retina AGN 202314 concentration [8, 10]: BLQ (BLQ: Retina and lens: <5 ng/g) | concentration at 8 day ([8]; aqueous humor, other: subconjunctival implant, subconjunctival PLGA implants, 3 rods, total 1.2 mg AGN 202314, read-out: Aqueous Humor AGN 202314 concentration): 6.38 ng/mL | concentration at 8 day ([8]; lens, other: subconjunctival implant, subconjunctival PLGA implants, 3 rods, total 1.2 mg AGN 202314, read-out: Lens AGN 202314 concentration): 229 ng/g | concentration at 15 day ([8]; lens, other: subconjunctival implant, Day 15, subconjunctival PLGA implants, 3 rods, total 1.2 mg AGN 202314): 7.93 ng/g | concentration at 8 day ([8]; retina, other: subconjunctival implant, subconjunctival PLGA implants, 3 rods, total 1.2 mg AGN 202314, read-out: Retina AGN 202314 concentration): 63.8 ng/g | periocular delivery to the vitreous and retina ([8]; subconjunctival implants and microspheres): unsuccessful | pKa [2]: 9.68 | logP [2]: 3.8 | solubility [2]: 202 µg/mL (≈ 547 µM)

Cc1cccc2c1C(=CNc1ccc(CCN3CCCCC3)cc1)C(=O)N2 [AGN 202560]
pKa [2]: 9.65 | logP [2]: 3.66 | solubility [2]: 41 µg/mL (≈ 113 µM)
